The target in one assay is BRD4(BD1) (Homo sapiens (Human), UniProt O60885). The assay can be described thus: In vitro enzyme inhibition assay (BRD4 AlphaScreen). It counts as binding. In a few lines: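 His-tagged BRD4 tested by AlphaScreen for binding of biotinylated H4K5/8/12/16-tetraacetyl peptide. After 20 min at room temperature, streptavidin donor and nickel chelate acceptor beads added (5 μg/mL final each). IC50 determined.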

The test system of assay [1] is NCI-H460, human non-small cell lung cancer cells. The assay can be described thus: Cell-MTS proliferation assay, NCI-H460. It counts as cell-based. The settings on record: Homo sapiens, NCI-H460; Cell-MTS proliferation, 168 hr. As to the method:
(§1) The Cell-MTS assay is a 7-day plate-based colorimetric assay which quantifies the amount of newly generated NADH in the presence or absence of test compound. The NADH level is used for the quantification of cancer cell proliferation.
(§2) Established cancer cell lines with a variety of driving mutations were obtained from American Type Culture Collection (ATCC) and routinely passaged according to ATCC protocols. For routine assay, these cells were seeded at densities which enabled ˜90% confluence after 7 days of culture. Raji, human Burkitts lymphoma cells, (cMYC) were seeded at 15,000 cells per 96-well. HL-60, human proleukemia cells, (NRAS, p16, p53, c-Myc amplified) were seeded at 5,000 cells per 96-well. NCI-H460, human non-small cell lung cancer cells, (KRAS, PIK3CA, STLK11, p16) were seeded at 3,000 cells per 96-well. 24 hr after plating, cells received an 11-point dilution of test compound with final concentration ranges from 100 μM to 2.0 nM. […] At the end of this incubation period, 80 μL of media is removed and 20 μL of CellTiter 96® AQueous Non-Radioactive Cell Proliferation Assay soln (Promega) was added. The cells were incubated until the OD490 was >0.6. IC50 values were calculated using the IDBS XLfit software package and include background subtracted OD490 values and normalization to DMSO controls. Cellular proliferation IC50 values were uploaded and archived using the Chem Biography Platform.
A general note: Tetrazolium assays rely on reduction of a dye to a coloured formazan, in cell work by metabolically active cells.

The test system of assay [2] is Raji, human Burkitts lymphoma cells. The assay can be described thus: Cell-MTS proliferation assay, Raji. The settings on record: 168 hr. In kind it is cell-based. As to the method: as §1, §2
In assay [3] the test system is HL-60, human proleukemia cells. The assay can be described thus: Cell-MTS proliferation assay, HL-60. It counts as cell-based. The following applies: Cell-MTS, 168 hr, class symbols A/B/C. Here is the method: as §1, §2
Setting [4] is: in vitro enzyme inhibition assay.
Setting [5] is: Homo sapiens, Raji, Cell-MTS proliferation.
[6] abbreviates: Homo sapiens, Raji, Cell-MTS, class symbols A/B/C.

As usually defined, the IC50 is the point on the concentration scale where inhibition reaches its midpoint. A higher IC50 goes with weaker potency.

Regarding `COc1cc(-c2nc(CS(C)(=O)=O)ncc2Oc2ccc(F)cc2F)cn(C)c1=O` [Example 146, 5-[5-(2,4-difluorophenoxy)-2-(methylsulfonylmethyl)pyrimidin-4-yl]-3-methoxy-1-methylpyridin-2-one], the IC50 was less than 500 nM at BRD4(BD1) (setting [4]), more than 5000 nM in assay [1] and 500 to 5000 nM in assay [2] (setting [5]).
For `Cn1cc(-c2cc(S(C)(=O)=O)ccc2OCC2CC2)c2cc(C(F)(F)F)ccc2c1=O` [Example 197], the IC50 was more than 5000 nM in assay [1] and 500 to 5000 nM in assay [2] (setting [5]).
As to `C#Cc1cc(-c2cc(NS(C)(=O)=O)ccc2Oc2ccc(F)cc2F)cn(C)c1=O` [Example 286, N-[4-(2,4-difluorophenoxy)-3-(5-ethynyl-1-methyl-6-oxopyridin-3-yl)phenyl]methanesulfonamide], the IC50 against BRD4(BD1) (setting [4]) was less than 500 nM; in assay [1], more than 5000 nM; in assay [2] (setting [5]), 500 to 5000 nM.
Regarding `COc1cc(-c2nc(NS(C)(=O)=O)ncc2Oc2ccc(F)cc2F)cn(C)c1=O` [Example 167, N-[5-(2,4-difluorophenoxy)-4-(5-methoxy-1-methyl-6-oxopyridin-3-yl)pyrimidin-2-yl]methanesulfonamide], the IC50 against BRD4(BD1) (setting [4]) is less than 500 nM; in assay [1], more than 5000 nM; in assay [2] (setting [5]), 500 to 5000 nM.
Turning to `Cn1cc(-c2nc(NS(C)(=O)=O)ncc2Oc2ccc(F)cc2F)c2ccccc2c1=O` [Example 165, N-[5-(2,4-difluorophenoxy)-4-(2-methyl-1-oxoisoquinolin-4-yl)pyrimidin-2-yl]methanesulfonamide], the IC50 against BRD4(BD1) (setting [4]) was less than 500 nM; in assay [1] it was more than 5000 nM; in assay [2] (setting [5]) it was 500 to 5000 nM.
The corresponding values for `Cn1cc(-c2nc(S(C)(=O)=O)ccc2OCC2CC2)c2cc(F)ccc2c1=O` [Example 202, 4-[3-(cyclopropylmethoxy)-6-methylsulfonylpyridin-2-yl]-6-fluoro-2-methylisoquinolin-1-one] are less than 500 nM, more than 5000 nM and less than 500 nM.
The corresponding values for `Cc1cc(-c2nc(CS(C)(=O)=O)ncc2Oc2ccc(F)cc2F)cn(C)c1=O` [Example 147, 5-[5-(2,4-difluorophenoxy)-2-(methylsulfonylmethyl)pyrimidin-4-yl]-1,3-dimethylpyridin-2-one] are less than 500 nM, more than 5000 nM and 500 to 5000 nM.
Turning to `Cn1cc(-c2cccc(NS(C)(=O)=O)c2)c2ccncc2c1=O` [Example 51, N-[3-(2-methyl-1-oxo-2,7-naphthyridin-4-yl)phenyl]methanesulfonamide], the IC50 in assay [3] (Homo sapiens, HL-60) was 500 to 5000 nM; against BRD4(BD1) (class symbols A/B/C) it was 500 to 5000 nM; in assay [2] (setting [6]) it was more than 5000 nM.
On to `Cn1cc(-c2cccc(NS(C)(=O)=O)c2)c2cc(F)ccc2c1=O` [Example 47, N-[3-(6-fluoro-2-methyl-1-oxoisoquinolin-4-yl)phenyl]methanesulfonamide], for which the IC50 in assay [3] (Homo sapiens, HL-60) was less than 500 nM; against BRD4(BD1) (class symbols A/B/C) it was less than 500 nM; in assay [2] (setting [6]) it was less than 500 nM.
In the case of `CN(C(=O)OC(C)(C)C)c1cccc(-c2cn(C)c(=O)c3ccccc23)c1` [Example 31, tert-butyl N-methyl-N-[3-(2-methyl-1-oxoisoquinolin-4-yl)phenyl]carbamate], the IC50 in assay [3] (Homo sapiens, HL-60) lay within 500 to 5000 nM; at BRD4(BD1) (class symbols A/B/C), 500 to 5000 nM; in assay [2] (setting [6]) it was 500 to 5000 nM.
For `COc1ccc(-c2cn(C)c(=O)c3ccccc23)cc1C(=O)NCc1ccccc1` [Example 18, N-benzyl-2-methoxy-5-(2-methyl-1-oxoisoquinolin-4-yl)benzamide], the IC50 in assay [3] (Homo sapiens, HL-60) lay within 500 to 5000 nM; on BRD4(BD1) (class symbols A/B/C) it was 500 to 5000 nM; in assay [2] (setting [6]), 500 to 5000 nM.
On to `COc1ccc(-c2cn(C)c(=O)c3ccccc23)cc1NS(C)(=O)=O` [Example 30, N-[2-methoxy-5-(2-methyl-1-oxoisoquinolin-4-yl)phenyl]methanesulfonamide], for which the concentration for half-maximal inhibition (IC50) in assay [3] (Homo sapiens, HL-60) is less than 500 nM; on BRD4(BD1) (class symbols A/B/C) it was less than 500 nM; in assay [2] (setting [6]) it was 500 to 5000 nM.
Take `CCS(=O)(=O)Nc1cccc(-c2cn(C)c(=O)c3cc(F)ccc23)c1` [Example 62, N-[3-(7-fluoro-2-methyl-1-oxoisoquinolin-4-yl)phenyl]ethanesulfonamide]: the IC50 in assay [3] (Homo sapiens, HL-60) was less than 500 nM; against BRD4(BD1) (class symbols A/B/C), less than 500 nM; in assay [2] (setting [6]), 500 to 5000 nM.
With `Cn1cc(-c2cc(S(C)(=O)=O)ccc2OCC2CC2)c2cc(F)ccc2c1=O` [Example 90, 4-[2-(cyclopropylmethoxy)-5-methylsulfonylphenyl]-6-fluoro-2-methylisoquinolin-1-one], the IC50 was less than 500 nM in assay [3] (Homo sapiens, HL-60); less than 500 nM at BRD4(BD1) (class symbols A/B/C); less than 500 nM in assay [2] (setting [6]).
On to `Cn1cc(-c2cccc(S(N)(=O)=O)c2)c2cc(F)ccc2c1=O` [Example 48, 3-(6-fluoro-2-methyl-1-oxoisoquinolin-4-yl) benzenesulfonamide], for which the IC50 in assay [3] lay in the range of 500 to 5000 nM; at BRD4(BD1) (class symbols A/B/C), 500 to 5000 nM; in assay [2] (Cell-MTS, class symbols A/B/C) it was 500 to 5000 nM.
For `Cn1cc(-c2cc(NS(C)(=O)=O)c(F)cc2F)c2ccccc2c1=O` [Example 35, N-[2,4-difluoro-5-(2-methyl-1-oxoisoquinolin-4-yl)phenyl]methanesulfonamide], the IC50 in assay [3] (Homo sapiens, HL-60) is 500 to 5000 nM; at BRD4(BD1) (class symbols A/B/C), 500 to 5000 nM; in assay [2] (setting [6]) it was 500 to 5000 nM.
Take `Cn1cc(-c2cccc(NS(C)(=O)=O)c2)ccc1=O` [Example 94, N-[3-(1-methyl-6-oxopyridin-3-yl)phenyl]methanesulfonamide]: the IC50 in assay [3] (Homo sapiens, HL-60) was more than 5000 nM; against BRD4(BD1) (class symbols A/B/C), 500 to 5000 nM; in assay [2] (setting [6]) it was less than 500 nM.
In the same order, the values of `Cc1ccc(-c2cn(C)c(=O)c3ccccc23)cc1NS(C)(=O)=O` [Example 17, N-[2-methyl-5-(2-methyl-1-oxoisoquinolin-4-yl)phenyl] methanesulfonamide] are less than 500 nM, less than 500 nM and 500 to 5000 nM.
In the same order, the values of `Cn1cc(-c2cc(NS(C)(=O)=O)cc(C(F)(F)F)c2)c2ccccc2c1=O` [Example 40, N-[3-(2-methyl-1-oxoisoquinolin-4-yl)-5-(trifluoromethyl)phenyl] methanesulfonamide] are 500 to 5000 nM, 500 to 5000 nM and 500 to 5000 nM.
In the same order, the values of `CCS(=O)(=O)Nc1cccc(-c2cn(C)c(=O)c3cnccc23)c1` [Example 52, N-[3-(2-methyl-1-oxo-2,7-naphthyridin-4-yl)phenyl] ethanesulfonamide] are 500 to 5000 nM, 500 to 5000 nM and 500 to 5000 nM.
On to `Cn1cc(-c2ccc(F)c(NS(C)(=O)=O)c2)c2ccccc2c1=O` [Example 37, N-[2-fluoro-5-(2-methyl-1-oxoisoquinolin-4-yl)phenyl] methanesulfonamide], for which the IC50 was 500 to 5000 nM in assay [3] (Homo sapiens, HL-60); less than 500 nM against BRD4(BD1) (class symbols A/B/C); 500 to 5000 nM in assay [2] (setting [6]).
As to `Cn1cc(-c2cccc(NS(C)(=O)=O)c2)c2ccc(F)cc2c1=O` [Example 58, N-[3-(7-fluoro-2-methyl-1-oxoisoquinolin-4-yl)phenyl]methanesulfonamide], the IC50 is less than 500 nM in assay [3] (Homo sapiens, HL-60); less than 500 nM against BRD4(BD1) (class symbols A/B/C); 500 to 5000 nM in assay [2] (setting [6]).
With `Cn1cc(-c2ccc3c(=O)n(C)cc(-c4cc(NS(C)(=O)=O)ccc4F)c3c2)cn1` [Example 41, N-[4-fluoro-3-[2-methyl-6-(1-methylpyrazol-4-yl)-1-oxoisoquinolin-4-yl]phenyl]methanesulfonamide], the IC50 is less than 500 nM in assay [3] (Homo sapiens, HL-60); less than 500 nM at BRD4(BD1) (class symbols A/B/C); less than 500 nM in assay [2] (setting [6]).

Source of the values: patent US10023592B2, “Bromodomain inhibitors” (Celgene Quanticel Research, Inc., priority 2013, dated 2018).
